One data set deals with JAK2 (Homo sapiens (Human), UniProt O60674). The data set is described as follows: Biochemical JAK and Tyk2 Kinase Assays (LanthaScreen), JAK2. Particulars: 3 μM ATP (Km); pIC50 converted to pKi by Cheng-Prusoff. The protocol: Assay 1: Biochemical JAK and Tyk2 Kinase Assays
A panel of four LanthaScreen JAK biochemical assays (JAK1, 2, 3 and Tyk2) were carried in a common kinase reaction buffer (50 mM HEPES, pH 7.5, 0.01% Brij-35, 10 mM MgCl2, and 1 mM EGTA). Recombinant GST-tagged JAK enzymes and a GFP-tagged STAT1 peptide substrate were obtained from Life Technologies.
Serially or discretely diluted compounds were pre-incubated with each of the four JAK enzymes and the substrate in white 384-well microplates (Corning) at ambient temperature for 1 h. ATP was subsequently added to initiate the kinase reactions in 10 μL total volume, with 1% DMSO. The final enzyme concentrations for JAK1, 2, 3 and Tyk2 are 4.2 nM, 0.1 nM, 1 nM, and 0.25 nM respectively; the corresponding Km ATP concentrations used are 25 μM, 3 μM, 1.6 μM, and 10 μM; while the substrate concentration is 200 nM for all four assays. Kinase reactions were allowed to proceed for 1 hour at ambient temperature before a 10 μL preparation of EDTA (10 mM final concentration) and Tb-anti-pSTAT1 (pTyr701) antibody (Life Technologies, 2 nM final concentration) in TR-FRET dilution buffer (Life Technologies) was added. The plates were allowed to incubate at ambient temperature for 1 h before being read on the EnVision reader (Perkin Elmer). Emission ratio signals (520 nm/495 nm) were recorded and utilized to calculate the percent inhibition values based on DMSO and background controls.
For dose-response analysis, percent inhibition data were plotted vs. compound concentrations, and IC50 values were determined from a 4-parameter robust fit model with the Prism software (GraphPad Software). Results were expressed as pIC50 (negative logarithm of IC50) and subsequently converted to pKi (negative logarithm of dissociation constant, Ki) using the Cheng-Prusoff equation.

For a further data set, the system named is Caco-2 cell monolayer. The data set is described as follows: Caco-2 Permeation Assay. In kind it is in vitro ADME. Particulars: Papp, 5 μM compound; for Cacoverap Kp 10^−6 cm/sec: A→B in the presence of 25 μM verapamil (P-gp inhibitor); for Caco Kp 10^−6 cm/sec: apical to basal (A→B). A digest of the protocol:
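Compound at 5 μM, in duplicate, crosses Caco-2 monolayers apical to basal over 120 min at 37 °C. This is run with and without 25 μM verapamil to test for P-gp efflux. Samples are quantified by LC-MS/MS, and Papp in cm/sec is calculated as dQ/(dt × area × concentration).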
Background: Passage across Caco-2 layers is used to estimate intestinal permeability.

For data set [1], the system named is IL-22 suppressed Filaggrin expression in normal human epidermal keratinocytes. The data set can be described thus: Recovery of IL-22 Suppressed Filaggrin in Normal Human Epidermal Keratinocytes. The data set is classed as cell-based. Particulars: IL-22 50 ng/mL, real-time PCR. The protocol: Assay 7: Recovery of IL-22 Suppressed Filaggrin in Normal Human Epidermal Keratinocytes
IL-22 is known to inhibit the expression of terminal differentiation genes, such as Filaggrin. The recovery level of test compound for interleukin-22 (IL-22) suppressed Filaggrin expression was measured in the normal human epidermal keratinocytes (ATCC) using real-time PCR.
Primary epidermal keratinocytes were cultured in a 37° C., 5% CO2 humidified incubator in dermal cell basal medium (ATCC) supplemented with keratinocyte growth kit (ATCC) and 1× Pen/Strep (Life Technologies). Cells were seeded at 5,000 cells/well in BioCoat 96-well plates (Corning) with 100 μl and incubated at 37° C., 5% CO2 for 3 to 4 days till 100% confluency. Then, the medium was removed and replaced with 1504 of medium containing does-response of test compounds. Compounds were serially diluted in DMSO and then diluted another 1000-fold in media to bring the final DMSO concentration to 0.1%. On day 1 of the assay, cells were incubated with test compounds at 37° C. for 1 h, and followed by the addition of followed by the addition of IL-22 (R&D Systems; final concentration 50 ng/mL) in pre-warmed media (50 μL) for 4 days. The medium with test compounds and IL-22 was changed once on day 3. On day 5, cells were washed with 1×PBS (Gibco) and lysed with 50 μl of Lysis Buffer containing 0.5 μl DnaseI from TaqMan® Gene Expression Cells-to-Ct™ Kit (Life Technologies). After incubation at room temperature (RT) for 5 minutes, 5 μl of Stop solution from the kit was added and then incubated at RT for 2 minutes. 11.25 μl of lysate, 12.5 μl of 2×RT buffer and 1.25 μl 20×RT enzyme mix from the kit were mixed. The reverse transcription reaction was carried out by incubating the mixture at 37° C. for 60 minutes and then 95° C. for 5 minutes to generate cDNA. To assemble the PCR cocktail, each reaction contained 10 μl of 2× TaqMan® Gene Expression Mater Mix, 1 μl of 2× TaqMan® Filaggrin Gene Expression Assay (Life Technologies), 1 μl of 2× TaqMan® UBC Gene Expression Assay (Life Technologies), 4 μl of nuclease-free water and 4 μl of cDNA. PCR reactions were done on StepOnePlus™ (Life Technologies) with cycling conditions of 50° C. for 2 minutes, 95° C. for 10 minutes followed by 40 cycles of 95° C. for 15 seconds and 60° C. for 1 minute. Fluorescence signals were captured after each cycle. Comparative CT method was used to quantify gene expression with cells without IL-22 and test compounds as baseline control.
On the technique in general: Quantitative PCR measures a nucleic acid by following its amplification.

Data set [2] is described as follows: Solubility Assay in Organic Excipients. Particulars: maximum upper limit 20,000 μM; for Solubility in MCT (mg/mL): medium chain triglycerides (MCT).

Molecules are shown by their SMILES.

JAK2, sequence (O60674 whole entry): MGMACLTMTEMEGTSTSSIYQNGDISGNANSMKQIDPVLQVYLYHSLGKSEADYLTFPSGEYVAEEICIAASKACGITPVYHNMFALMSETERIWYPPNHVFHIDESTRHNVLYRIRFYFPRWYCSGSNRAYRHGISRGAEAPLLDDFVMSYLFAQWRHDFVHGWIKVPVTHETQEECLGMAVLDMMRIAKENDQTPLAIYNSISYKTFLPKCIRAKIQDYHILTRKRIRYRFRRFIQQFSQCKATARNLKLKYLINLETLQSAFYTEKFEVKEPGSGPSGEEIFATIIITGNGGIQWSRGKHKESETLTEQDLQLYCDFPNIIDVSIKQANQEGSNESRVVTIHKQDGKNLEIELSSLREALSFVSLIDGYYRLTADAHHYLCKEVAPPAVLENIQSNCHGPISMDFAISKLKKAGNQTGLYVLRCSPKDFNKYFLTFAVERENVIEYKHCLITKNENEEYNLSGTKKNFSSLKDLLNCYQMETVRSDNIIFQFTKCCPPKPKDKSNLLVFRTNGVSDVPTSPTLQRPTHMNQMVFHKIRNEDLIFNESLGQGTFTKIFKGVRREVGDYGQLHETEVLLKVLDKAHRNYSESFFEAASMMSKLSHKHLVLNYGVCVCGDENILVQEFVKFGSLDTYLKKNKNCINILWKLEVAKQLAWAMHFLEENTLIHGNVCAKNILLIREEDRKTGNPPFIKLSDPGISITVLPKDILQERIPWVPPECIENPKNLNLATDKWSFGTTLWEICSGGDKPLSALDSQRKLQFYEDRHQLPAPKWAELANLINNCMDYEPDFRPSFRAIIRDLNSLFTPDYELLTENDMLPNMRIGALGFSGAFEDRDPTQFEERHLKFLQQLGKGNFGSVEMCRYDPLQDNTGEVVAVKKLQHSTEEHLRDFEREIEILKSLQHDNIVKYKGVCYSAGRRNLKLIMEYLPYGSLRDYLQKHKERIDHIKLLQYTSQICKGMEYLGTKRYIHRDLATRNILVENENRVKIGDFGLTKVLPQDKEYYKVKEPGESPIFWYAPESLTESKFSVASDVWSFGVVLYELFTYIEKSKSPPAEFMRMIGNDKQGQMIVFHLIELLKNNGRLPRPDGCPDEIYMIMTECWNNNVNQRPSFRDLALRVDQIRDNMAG

Turning to `CCS(=O)(=O)N1[C@@H]2CCC[C@H]1C[C@H](N(C)c1nc(COC3COC3)c(F)c(Nc3cc(C)[nH]n3)n1)C2` [Compound 41, N2-((1R,3s,5S)-9-(ethylsulfonyl)-9-azabicyclo[3.3.1]nonan-3-yl)-5-fluoro-N2-methyl-N4-(5-methyl-1H-pyrazol-3-yl)-6-((oxetan-3-yloxy)methyl)pyrimidine-2,4-diamine], the “JAK 2 (pKi)” value at JAK2 was “A (A represents a pKi value ≥10 (Ki≤0.1 nM))”. Moreover, in the data set on Caco-2 cell monolayer, the “Cacoverap Kp 10^−6 cm/sec” value is “A (A represents a value above 35×10^−6 cm/sec)” and the “Caco Kp 10^−6 cm/sec” value is “A (A represents a value above 30×10^−6 cm/sec)”. In data set [1], the “concentration at which recovery of IL-22 suppressed Filaggrin expression was observed” value (“concentration at which recovery” for short) is under 1 µM. Also, in data set [2], the “Solubility in PEG400 (mg/mL)” value was “B (B represents a value between 5 and 10)”; the “Solubility in Diisopropyl adipate (mg/mL)” value is “A (A represents a value above 10)”; the “Solubility in MCT (mg/mL)” value is given as “C (C represents a value below 5)”; the “Solubility in Propylene glycol (mg/mL)” value is listed as “A (A represents a value above 10)”.

Consider `CCS(=O)(=O)N1[C@@H]2CCC[C@H]1C[C@H](N(C)c1nc(Nc3cc(C)[nH]n3)cc(C3CCCO3)n1)C2` (stereo partly drawn) [Compound 8, N^2-((1R,3s,5S)-9-(ethylsulfonyl)-9-azabicyclo[3.3.1]nonan-3-yl)-N2-methyl-N4-(5-methyl-1H-pyrazol-3-yl)-6-(tetrahydrofuran-2-yl)pyrimidine-2,4-diamine], for which the “JAK 2 (pKi)” value on JAK2 is listed as “A (A represents a pKi value ≥10 (Ki≤0.1 nM))”. In the data set on Caco-2 cell monolayer, the “Cacoverap Kp 10^−6 cm/sec” value is “A (A represents a value above 35×10^−6 cm/sec)” and the “Caco Kp 10^−6 cm/sec” value is reported as “A (A represents a value above 30×10^−6 cm/sec)”. Besides, the “concentration at which recovery” value in data set [1] is under 1 µM. Moreover, in data set [2], the “Solubility in PEG400 (mg/mL)” value was “A (A represents a value above 10)”; the “Solubility in Diisopropyl adipate (mg/mL)” value was “B (B represents a value between 5 and 10)”; the “Solubility in MCT (mg/mL)” value is reported as “C (C represents a value below 5)”; the “Solubility in Propylene glycol (mg/mL)” value is reported as “A (A represents a value above 10)”.

As for `COC(=O)N1[C@@H]2CCC[C@H]1C[C@H](N(C)c1nc(Nc3cc(C)[nH]n3)cc(O[C@@H]3CCOC3)n1)C2` [Compound 23], the “JAK 2 (pKi)” value on JAK2 was “A (A represents a pKi value ≥10 (Ki≤0.1 nM))”. Besides, in the data set on Caco-2 cell monolayer, the “Cacoverap Kp 10^−6 cm/sec” value is “B (B represents a value between 20×10^−6 and 35×10^−6 cm/sec)”; the “Caco Kp 10^−6 cm/sec” value is given as “A (A represents a value above 30×10^−6 cm/sec)”. Moreover, the “concentration at which recovery” value in data set [1] was under 1 µM.

On to `CCS(=O)(=O)N1[C@@H]2CCC[C@H]1C[C@H](N(C)c1nc(CO[C@@H]3CCOC3)c(F)c(Nc3cc(C)[nH]n3)n1)C2` [Compound 43, N2-((1R,3s,5S)-9-(ethylsulfonyl)-9-azabicyclo[3.3.1]nonan-3-yl)-5-fluoro-N2-methyl-N4-(5-methyl-1H-pyrazol-3-yl)-6-((((R)-tetrahydrofuran-3-yl)oxy)methyl)pyrimidine-2,4-diamine], for which the “JAK 2 (pKi)” value on JAK2 is on record as “A (A represents a pKi value ≥10 (Ki≤0.1 nM))”. For the same compound, the “Caco Kp 10^−6 cm/sec” value with Caco-2 cell monolayer is given as “A (A represents a value above 30×10^−6 cm/sec)”. The “concentration at which recovery” value in data set [1] was under 1 µM. Besides, in data set [2], the “Solubility in PEG400 (mg/mL)” value is listed as “A (A represents a value above 10)”, the “Solubility in Diisopropyl adipate (mg/mL)” value is “A (A represents a value above 10)”, the “Solubility in MCT (mg/mL)” value is reported as “C (C represents a value below 5)” and the “Solubility in Propylene glycol (mg/mL)” value is reported as “A (A represents a value above 10)”.

On to `CCS(=O)(=O)N1[C@@H]2CCC[C@H]1C[C@H](N(C)c1nc(CO[C@H]3CCOC3)c(F)c(Nc3cc(C)[nH]n3)n1)C2` [Compound 42, N2-((1R,3s,5S)-9-(ethylsulfonyl)-9-azabicyclo[3.3.1]nonan-3-yl)-5-fluoro-N2-methyl-N4-(5-methyl-1H-pyrazol-3-yl)-6-((((S)-tetrahydrofuran-3-yl)oxy)methyl)pyrimidine-2,4-diamine], for which the “JAK 2 (pKi)” value at JAK2 was “A (A represents a pKi value ≥10 (Ki≤0.1 nM))”. Moreover, in the data set with Caco-2 cell monolayer, the “Caco Kp 10^−6 cm/sec” value is reported as “A (A represents a value above 30×10^−6 cm/sec)”. In data set [1], the “concentration at which recovery” value is under 1 µM. Moreover, in data set [2], the “Solubility in PEG400 (mg/mL)” value is listed as “A (A represents a value above 10)”, the “Solubility in Diisopropyl adipate (mg/mL)” value is “A (A represents a value above 10)”, the “Solubility in MCT (mg/mL)” value is listed as “C (C represents a value below 5)” and the “Solubility in Propylene glycol (mg/mL)” value is on record as “A (A represents a value above 10)”.

Values taken from US11439641B2, “Pyrimidine JAK inhibitors for the treatment of skin diseases” (THERAVANCE BIOPHARMA R&D IP, LLC, priority 2019, dated 2022).
